# Results from patent publication US9377466B2, “Compounds and methods” (Modpro AB, priority 2010, dated 2016).
# Side chains are listed from the residue outwards. * marks the point of attachment. Benzoyl(4-SO2NH2) = NS(=O)(=O)c1ccc(C(=O)*)cc1; Acridin9yl = c1ccc2c(*)c3ccccc3nc2c1; X1 = COc1ccc2cc(C(=O)*)c(=O)oc2c1; Ahx = NCCCCCC(=O)O
# Key:
# [1] = CD spectroscopy, mean residue ellipticity of the sixteen scaffold polypeptides; assay type: physicochemical; conditions: error ±1000
# Description: The mean residue ellipticities at 222 nm, [θ]222, □ of the sixteen scaffold polypeptides were recorded at two concentrations, approximately 30 μM and approximately 1 μM, to characterize the state of aggregation, cf.
# The degree of helix formation is related to the monomer-dimer equilibrium since monomers are unordered with low helical content whereas dimers are highly helical. […] While the ^1H NMR spectra have not been recorded of all sequences and of all polypeptide conjugates, it is likely that the sequences presented here are best described as molten globules.
# [2] = system: α-casein; assay: Three-step fluorescence titration with α-casein (microtitre plate); assay type: binding; conditions: polypeptide without PP1; binder in the absence of Zn^2+ ions
# Description: In a preliminary and simple assay executable in microtitre plate format, each of the eight binder candidates at a concentration of 500 nM in 10 mM HEPES buffer and 150 mM NaCl at pH 7.2, equipped with the fluorophor 7-methoxycoumarin-3-carboxylic acid, were titrated with α-casein in three steps (FIG. 8). Concentrations of peptides were determined from the absorbance of the coumarine probe and stock solutions at concentrations of 5 μM were prepared from which aliqiuots were transferred to the microtitre plate. […] The fluorescence emission spectre were recorded in the absence of protein, and in the presence of 500 nM, 1000 nM and 1500 nM protein to determine in a qualitative way whether or not binding was saturated at 500 nM concentration of both binder and protein. Saturation within experimental error at those concentrations is compatible with low nM affinity and tight binding.
# All fluorescence experiments were conducted in 96 well polystyrene plates. All readings were performed by plate reader Molecular Devices Spectra max GEMINI XPS at 25° C. Each plate contained 300 μL of analyte. All polystyrene plates were specially prepared prior the measurements in order to minimize the unspecific binding of the analyte. All wells were filled with 1% aqueous solution of Pluronic and left overnight. […]
# [3] = system: hAChE; conditions: known inhibitor, literature; cited from earlier work
# [4] = biological target: phosphopeptides; conditions: literature; cited from earlier work
# [5] = system: human Carbonic Anhydrase (HCAI and HCAII); assay: Extraction from lysed blood by binders on nanoparticles (SDS-PAGE, MS); assay type: binding; conditions: lysed fresh blood, silver stained gel
# Description: The selected binders were resynthesized with an Acm-protected Cys residue in position 24. After removal of the Acm group the binders were immobilized on polystyrene nanoparticles coated with Pluronic® F108-PDS, by incubation for 1 hour in 10 mM Phosphate buffer at pH 7.4 containing 150 mM NaCl. The coating material forms monolayers of PEG equipped with activated disulfide groups that spontaneously react with free thiols under the release of 2-mercaptopyridine (Fromell, K., Hulting, G., Ilichev, A., Larsson, A. & Caldwell, K. C. Analytical Chemistry 79, 8601-07 (2007)).
# Approximately 60 μL of freshly drawn blood was lysed by dilution in 240 μL of distilled water followed by centrifugation to remove cell debris. HCAII resides in the red blood cells and in order to access the protein, cells have to be lysed. The supernatant was isolated and incubated with the functionalized nanoparticles for 30 minutes to allow them to capture HCAII. The particles were washed three times in PBS, and centrifuged after each wash. The binders and the captured proteins were cleaved from the particles using dithiothreitol and separated from the particles by centrifugation. […]
# There are two isoforms of human Carbonic Anhydrase, HCA I and HCAII, in blood. […] The bands from the gel were cut, […] digested and analysed by MALDI-TOF-MS, displaying that the bands contained both isoforms. […]
# [6] = biological target: T1, hAChE (Homo sapiens, UniProt P22303); assay: Capture of hAChE from cerebrospinal fluid by binder on nanoparticles (SDS-PAGE, nanoparticle ELISA); assay type: binding; conditions: binder on Pluronic-coated polystyrene nanoparticles, patient CSF, sandwich ELISA
# T1 construct: monitoring the capturing of hAChE from cerebrospinal fluid (CSF) obtained from Uppsala University hospital; from tissue; host or cells: human cerebrospinal fluid (Uppsala University Hospital)
# T1 sequence (P22303 32-614): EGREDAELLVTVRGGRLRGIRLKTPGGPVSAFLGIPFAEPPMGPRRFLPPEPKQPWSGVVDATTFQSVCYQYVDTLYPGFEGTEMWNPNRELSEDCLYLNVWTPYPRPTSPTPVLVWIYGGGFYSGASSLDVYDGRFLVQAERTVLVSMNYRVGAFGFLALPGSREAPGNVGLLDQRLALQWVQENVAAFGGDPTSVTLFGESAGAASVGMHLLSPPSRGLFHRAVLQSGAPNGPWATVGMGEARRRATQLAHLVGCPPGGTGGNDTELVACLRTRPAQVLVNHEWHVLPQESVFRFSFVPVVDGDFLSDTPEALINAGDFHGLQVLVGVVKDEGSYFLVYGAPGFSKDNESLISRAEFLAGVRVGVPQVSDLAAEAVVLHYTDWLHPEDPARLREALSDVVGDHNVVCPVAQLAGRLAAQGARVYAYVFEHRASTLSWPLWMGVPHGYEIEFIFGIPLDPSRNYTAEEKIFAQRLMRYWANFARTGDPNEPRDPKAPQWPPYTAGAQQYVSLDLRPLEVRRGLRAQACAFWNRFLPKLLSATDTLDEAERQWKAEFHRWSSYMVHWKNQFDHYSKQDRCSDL
# Description: The selectivity of 4-C10L17-Ac was determined by monitoring the capturing of hAChE from cerebrospinal fluid (CSF) obtained from Uppsala University hospital. CSF represents a complex biological milieu with several other proteins in high concentration and one of considerable interest with regards to future applications. The selected binder was resynthesized with an acetamidomethyl-(Acm-) protected Cys residue in position 24, instead of an Ala in this position, and attached to polystyrene nanoparticles coated with Pluronic® F108-PDS by disulfide bond formation after Acm deprotection. […] After the washing steps the particles were analyzed by ELISA and gel electrophoresis. […]
# The capture of hAChE by 4-C10L17-Ac was also analyzed by a nanoparticle ELISA based on luminescence. […] After three washing steps the substrate luminol was added and the resulting luminescent signal recorded. […]
# Pluronic F108-PDS (Allvivo Inc.) was adsorbed to polystyrene latex nanoparticles (Bangs laboratories Inc.) by incubating a 2% (w/v) suspension of particles with 10 mg/mL of Pluronic F108-PDS over night at room temperature under constant shaking. […] Aliquots of 8 μL of the supernatants were analyzed by gradient SDS-PAGE gels electrophoresis using NuPAGE® Novex Bis-Tris 4-12% (v/w) gel and MES running buffer (Invitrogen). […]
# [7] = biological target: T2, HCAII (Homo sapiens, UniProt P00918); assay: SPR biosensor analysis, immobilized HCAII; assay type: binding; conditions: ratio of SPR dissociation constants
# T2 construct: purchased Sigma
# Description: The sixteen polypeptide conjugates were also characterized by SPR biosensor analysis (Biacore®, GE Healthcare), using a Biacore® 2000 instrument, Biacore® CM-5 chip and HBS-EP buffer pH 7.4 (Biacore®, GE Healthcare) with addition of 1% DMSO for the interaction studies. Peptide solutions were prepared by dilution in buffer from 20 μM stock solutions in DMSO. HCAII was immobilized on the chip using standard EDC/NHS coupling in Acetate buffer pH 5.5. The binders were allowed to flow over the chip at 7 concentrations in the range from 1 nM to 500 nM and the interactions were evaluated using a 1:1 binding model (BiaEvaluation).
# HCAI and HCAII were immobilized in different flowcells on a CM-5 (Biacore) chip using standard EDC/NHS coupling in Acetate buffer at pH 5.5.
# SPR measurements were performed on a Biacore® 2000 instrument, with the proteins immobilized on a Biacore® CM-5 sensor chips (GE Healthcare). All interaction studies were performed in Biacore® HSB-EP buffer with the addition of 1% (v/v) DMSO. HCAII (Sigma, lyophilized powder) was dissolved in Acetate buffer pH 5.5 to a 2 mg/mL solution. HCAII were conjugated to the surface by EDC/NHS coupling reactions in Acetate buffer pH 5.5. Solutions of the polypeptide binders were prepared in HBS-EP buffer from stock solutions of 20 μM in DMSO and allowed to flow over the surface at 20 μL/min, with blank injections after every series. […]
# [8] = Solubility in buffer; conditions: sequence conjugated to a fluorescein probe
compound,measurement,setting,value
4-C10L17: SEQ ID NO: 8 NAADLEARIKHLRERLKARGPRDAAQLAEQLARAFERFARAG,[θ]222 at high concentration,[1]; high concentration 30-230 μM as listed per peptide,−19500 deg cm^2 dmol^−1
same,[θ]222 at low concentration,[1]; low concentration 1-5 μM as listed per peptide,−11800 deg cm^2 dmol^−1
same,"effect of α-casein on fluorescence emission spectrum, negative controls",[2],No effect
Nc1c2ccccc2nc2ccccc12 [9-aminoacridine],reported affinity,[3],30 to 100 nM
"O=C(O)c1cc(CN(Cc2ccccn2)Cc2ccccn2)cc(CN(Cc2ccccn2)Cc2ccccn2)c1 [PP1, 3,5-Bis[[bis(2-pyridylmethyl)amino]methyl]benzoic acid]",dissociation constants for phosphopeptides,[4],μM range
Ac-NAADLEAK([Ahx-Benzoyl(4-SO2NH2)])IRHLAEK(X1)LAARGPVDAAQLAEQLARRFEAFARAG-NH2 (C-terminus assumed) [3-C15L8-B],proteins extracted from lysed blood,[5],extract Carbonic Anhydrases predominantly
Ac-NAADLEARIK(X1)HLRERLK([Ahx-Ahx-Acridin9yl])ARGPRDAAQLAEQLARAFERFARAG-NH2 (C-terminus assumed) [4-C10L17-Ac],capture of hAChE from CSF,[6],selectively extract hAChE from CSF
Ac-NAADLEARIRHLRERLAARGPRDAAQLAEQLARK([Ahx-Benzoyl(4-SO2NH2)])FEK(X1)FARAG-NH2 (N-terminus and C-terminus assumed) [4-C37L34-B],discrimination between HCAI and HCAII (factor),[7],approximately 30
same,proteins extracted from lysed blood,[5],extract Carbonic Anhydrases predominantly
same,solubility in buffer,[8],poorly soluble
